The subject of series [1] is mouse primary hippocampal neurons. As to the kind of experiment: NMDA/AMPA-sensitive calcium influx assay in mouse primary hippocampal neurons. In kind it is cell-based. On the procedure: (§1) Mouse primary hippocampal neurons and AD neurons were loaded with Fluo4-fluorescence conjugated calcium dye (Invitrogen Molecular Probes, Cat #F10471) and incubated at 37 °C for 60 min, as described before. Briefly, fluorescence excitation and emission spectra were recorded in a Perkin–Elmer Victor X2 Fluorimetric Spectrometer (Versiti Blood Center, Wauwatosa, WI, USA) in the presence of 50 μM NMDA and AMPA solutions. The recording was performed with 100 repeats at 0.1 ms intervals. The oscillogram was generated with the help of Parkin Elmer 2030 software that was connected to the Victor X2 calcium recorder unit. The real-time calcium noise graph was generated as a kinetic chart plotted on a linear scale.

The subject of another series is CREB. As to the kind of experiment: CRE dual luciferase reporter assay. In kind it is cell-based, human. The note with it: increasing doses (2, 5, and 10 µM). How it is done:
CRE luciferase assay was performed using a dual luciferase kit (Cat# 60611; BPS Bioscience). The CRE reporter is premixed with a constitutively expressing Renilla (sea pansy) luciferase vector that serves as an internal control for transfection efficiency. The reporter construct is transfected in SHSY5Y cells with Lipofectamine3000^TM transfection reagent mixed with serum-free Opti-MEM^TM Transfection media followed by supplementation with 20% FBS-containing media. After 24 h, cells were treated with JRM-28 for 5 h, and then dual luciferase activity was measured by cell lysis. The reaction was set in a 96-well plate, and the assay endpoint was recorded in a PerkinElmer Enspire multimodal plate reader.
For orientation: Reporter assays use an easily measured gene product as a stand-in for the process of interest.

A further series deals with SHSY5Y cells. Nature of the series: Lactate dehydrogenase (LDH) release cytotoxicity assay. In kind it is cell-based, human. The note with it: 24 h. How it is done:
Lactate dehydrogenase (LDH) cell cytotoxicity assay was performed per the manufacturer’s protocol. Briefly, SHSY5Y cells were grown in a 96-well plate with up to 70% confluency followed by treatment with increasing doses of JRM-28 under serum-free conditions. Serially diluted JRM-28 was used in a concentration range from 75 nM to 50 μM. As a control, serially diluted DMSO controls were added. After 24 h, supernatants were harvested by a multi-channel pipette and then assessed for LDH release with CyQUANT™ LDH Cytotoxicity Assay Kit. Briefly, 50 μL of supernatant was incubated with an equal volume of the working reaction mixture (generated after combining the 600 µL of assay buffer Stock Solution with the 11.4 mL of Substrate Stock substrate mix), incubated at room temperature for 30 min protected from light, terminated by 50 μL of stop solution, and then measured at 490 nm using a microplate absorbance spectrophotometer (Perkin Elmer Enspire 2300 Multilabel Multimode Microplate Reader). The percentage of cytotoxicity was determined following the formula provided with the LDH assay kit and then converted to relative cell cytotoxicity.

Another series addresses HDAC2 (Homo sapiens, UniProt Q92769). As to the kind of experiment: HDAC2 inhibition assay, luminometric method (HDAC-Glo I/II). The class given is biochemical. Also on record: purchased BPS Bioscience 50002. The note with it: for IC50: HDAC2 0.5 nM, read-out: IC50 HDAC2 inhibition (luminescence). How it is done: HDAC2 inhibition assay was performed by either the luminometric or fluorimetric method applying the following procedures. The table (Table 1) represents the details of different HDAC proteins and antibodies used in all biochemical assays.
HDAC2 inhibition assay was performed by HDAC-Glo™ I/II Assays and Screening System (Catalog# G6420, Promega Corporation, Madison, WI, USA) by the luminometric method according to the manufacturer’s protocol. […] The HDAC-2 inhibition assay was performed as previously described to determine IC values. In brief, the purified HDAC2 was diluted in HDAC assay buffer (provided with the HDAC-Glo™ I/II Assays and Screening System) to the same concentration based on their calculated molar mass. […] Next, 10 µL of JRM-28 after serial dilution was added to 10 µL of diluted HDAC2 in such a way that the final HDAC2 concentration was 0.5 nM in each well of a 384-well microplate (Greiner, Kremsmünster, Austria). After 30 min of incubation, 20 µL of the HDAC-Glo substrate/developing reagent was added to each well according to the manufacturer’s instructions. The 384-well plate was then agitated on an orbital shaker for the mixing of components in each well for another 30 min at room temperature. Finally, luminescence was measured using a POLARstar Omega plate reader (BMG Labtech, Ortenberg, Germany).

Another series deals with iPSC-derived AD neurons. Nature of the series: NMDA/AMPA-driven calcium entry assay in iPSC-derived AD neurons. In kind it is cell-based, human. How it is done: as §1
Another series deals with T1, HDAC3 (Homo sapiens, UniProt O15379).
T1 construct: purchased BPS Bioscience 50003
Nature of the series: Fluorimetric HDAC inhibition assay, HDAC3. In kind it is biochemical. To be noted: reduced with DTT. On the procedure:
The inhibition of HDAC1, 2, 3, and 6 by JRM-28 was fluorometrically measured using the HDAC Fluorogenic Assay Kit (Catalog# 50034) by BPS bioscience. Purified recombinant human HDAC1 (Cat# 50051), HDAC3 (Cat# 50003), and HDAC6 (Cat# 50056) were also obtained from BPS Bioscience. The enzyme inhibition assay was performed according to the manufacturer’s protocol. […] Purified recombinant HDAC2 (supplied with the fluorogenic kit) was diluted to 6 ng/µL (5 µL/well with the supplied HDAC assay buffer). HDAC 1, 3, and 6 were also diluted to the optimized concentration (5 µL/well) with the HDAC assay buffer. The activity of JRM-28 was measured along with DTT control and DMSO as blank. After adding 5 µL of the diluted HDAC enzymes in designated wells, the 96-well plate (supplied with the kit) was incubated at 37 °C. Then, the reaction was initiated by adding 5 µL of diluted HDAC substrate to each well, followed by another incubation at 37 °C for 30 min. Next, 50 µL of the developer reagent was added to each well and incubated at room temperature for another 15 min. Finally, fluorescence was measured by a microplate absorbance spectrophotometer (PerkinElmer Enspire 2300 Multilabel Multimode Microplate Reader) with an excitation at λ = 485 nm and detection at λ = 528 nm.

Like-named read-outs stand apart in the source and are kept apart here.

HDAC2, sequence (Q92769 whole entry): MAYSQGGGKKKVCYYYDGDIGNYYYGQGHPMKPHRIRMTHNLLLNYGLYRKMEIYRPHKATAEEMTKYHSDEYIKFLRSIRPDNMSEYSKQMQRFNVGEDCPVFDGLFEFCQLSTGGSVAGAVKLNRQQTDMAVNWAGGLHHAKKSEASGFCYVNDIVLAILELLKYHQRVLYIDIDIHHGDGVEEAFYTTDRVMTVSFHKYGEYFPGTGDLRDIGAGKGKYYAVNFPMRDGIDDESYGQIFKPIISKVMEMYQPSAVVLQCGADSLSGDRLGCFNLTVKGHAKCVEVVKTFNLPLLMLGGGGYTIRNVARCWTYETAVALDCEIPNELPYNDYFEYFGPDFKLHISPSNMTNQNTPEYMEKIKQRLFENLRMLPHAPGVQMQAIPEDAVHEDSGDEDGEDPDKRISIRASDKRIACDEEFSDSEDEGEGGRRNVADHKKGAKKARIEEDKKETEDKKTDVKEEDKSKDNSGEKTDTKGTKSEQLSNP
T1 sequence (O15379 whole entry): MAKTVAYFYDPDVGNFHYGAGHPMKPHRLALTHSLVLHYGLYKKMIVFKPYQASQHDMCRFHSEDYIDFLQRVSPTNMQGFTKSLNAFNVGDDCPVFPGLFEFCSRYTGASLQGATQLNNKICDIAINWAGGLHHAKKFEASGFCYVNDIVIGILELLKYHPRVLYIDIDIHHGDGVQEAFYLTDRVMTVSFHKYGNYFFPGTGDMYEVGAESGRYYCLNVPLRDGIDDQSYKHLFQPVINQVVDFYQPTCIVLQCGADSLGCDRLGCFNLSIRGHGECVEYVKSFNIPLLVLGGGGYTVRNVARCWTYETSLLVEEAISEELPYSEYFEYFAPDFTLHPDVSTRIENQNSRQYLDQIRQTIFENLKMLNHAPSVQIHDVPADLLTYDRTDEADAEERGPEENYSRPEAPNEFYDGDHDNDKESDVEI
T1 sequence (Q9Y618 395-489 partner limits assumed): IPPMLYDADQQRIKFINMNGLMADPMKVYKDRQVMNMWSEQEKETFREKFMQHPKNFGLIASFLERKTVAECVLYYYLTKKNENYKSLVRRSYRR

As for `CN(C(=O)CC(O)/C=C/CCSS(=O)(=O)CC/C=C/C(O)CC(=O)N(C)c1ccccc1)c1ccccc1` (stereo not drawn) [JRM-28, S-((E)-5-hydroxy-7-(methyl(phenyl)amino)-7-oxohept-3-en-1-yl) (E)-5-hydroxy-7-(methyl(phenyl)amino)-7-oxohept-3-ene-1-sulfonothioate], in series [1] (5 µM, 24 h), the AMPA-sensitive calcium influx entry is given as “strongly upregulated”. In addition, in series [1] (5 µM, 24 h), the NMDA-sensitive calcium influx entry is on record as “strongly upregulated”. The “optimum dose for the calcium influx” value in series [1] (2, 5, and 10 µM tested) came to 5 µM. Moreover, the “NMDA- and AMPA-driven calcium influx after creb siRNA” value in series [1] (creb knocked down by creb siRNA) was “significantly abrogate”. Further, in the series with CREB, the CREB-driven reporter activity result is “upregulated the CREB-driven reporter activity”. Also, the LDH release entry in the series on SHSY5Y cells (30 µM and 50 µM) is listed as “significantly induced LDH release”; with SHSY5Y cells (concentrations lower than 30 µM), “but not lower concentrations of JRM-28, significantly induced LDH release”. Also, the IC50 (in general, the concentration at which inhibition is half-maximal) on HDAC2 (in the presence of DTT (reduced)) turned out to be 0.28 µM; on HDAC2 (without DTT (non-reduced dimer)), 54.9 µM; on HDAC3, 0.279 µM. Also, the “increase of HDAC2 inhibitory effect by addition of DTT” value at HDAC2 (with DTT versus without DTT) is listed as about 200 fold. The AMPA-driven calcium influx entry with iPSC-derived AD neurons (5 µM) is on record as “strong AMPA-driven calcium influx”. Besides, in the series with iPSC-derived AD neurons (5 µM), the NMDA-driven calcium entry result is given as “significantly high”. In addition, the “concentration of maximum NMDA-driven calcium entry” value with iPSC-derived AD neurons (2, 5, and 10 µM tested) is listed as 10 µM. In addition, the “NMDA- and AMPA-induced calcium entry after creb siRNA” value in the series on iPSC-derived AD neurons (creb siRNA-transfected AD neurons) is “strongly attenuated”. For the same molecule, the “Hill coefficient HDAC3 (fluorimetric)” value at HDAC3 (listed as JRM-28 (JRM-28a+28b)) was −4.663.

For the origin of these results see PMC11640089, “JRM-28, a Novel HDAC2 Inhibitor, Upregulates Plasticity-Associated Proteins in Hippocampal Neurons and Enhances Morphological Plasticity via Activation of CREB: Implications for Alzheimer’s Disease” (Cells, 2024).
